pIC50: −log10 of the molar value.
Columns and labels:
[1] = molecular target: T1, Purified recombinant ADAMTS-7 (rat prodomain/human catalytic domain, SEQ ID No. 01 or 02) (Homo sapiens, UniProt Q9UKP4); experiment: Assay for ADAMTS-7 enzymatic activity (FRET substrate cleavage); assay type: biochemical; settings: FRET substrate SEQ ID No. 11, 120 min at 32° C.; read-out: ADAMTS7-IC50
T1 construct: rat ADAMTS-7 signal peptide + prodomain (rat 1-217, Q1EHB3) (N); 2xStrep tag (C); 6xHis tag (C); made in house; host or cells: Expi293 cells
T1 sequence (Q9UKP4 237-537): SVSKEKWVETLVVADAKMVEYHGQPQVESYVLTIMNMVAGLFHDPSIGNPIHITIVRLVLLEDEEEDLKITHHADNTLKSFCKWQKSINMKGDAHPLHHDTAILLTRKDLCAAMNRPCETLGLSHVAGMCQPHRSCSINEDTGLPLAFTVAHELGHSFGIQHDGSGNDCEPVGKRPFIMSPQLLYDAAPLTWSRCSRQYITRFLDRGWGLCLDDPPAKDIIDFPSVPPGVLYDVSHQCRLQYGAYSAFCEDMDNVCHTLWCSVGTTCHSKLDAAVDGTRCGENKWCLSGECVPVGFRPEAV
In short: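 IC50 values were fitted from percent inhibition across test-compound concentrations. Fluorescence gain (ex 485, em 520 nm) reports cleavage of a thrombospondin-1 (275-289) FRET peptide with QXL520 quencher, after 120 min at 32 °C. The enzyme, about 20 nM, was in HEPES pH 8.0 buffer with NaCl, CaCl2, ZnCl2 and Brij.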

ADAMTS4 = molecular target: T2, ADAMTS4 (Homo sapiens, UniProt O75173); experiment: Selectivity assay for ADAMTS-7 modulators (FRET), ADAMTS4; assay type: biochemical; settings: 50 nM enzyme (R&D 4307-AD), 1 μM Dabcyl/Edans FRET substrate, 120 min at 32° C.
T2 construct: purchased R&D 4307-AD
T2 sequence (O75173 213-685 limits assumed): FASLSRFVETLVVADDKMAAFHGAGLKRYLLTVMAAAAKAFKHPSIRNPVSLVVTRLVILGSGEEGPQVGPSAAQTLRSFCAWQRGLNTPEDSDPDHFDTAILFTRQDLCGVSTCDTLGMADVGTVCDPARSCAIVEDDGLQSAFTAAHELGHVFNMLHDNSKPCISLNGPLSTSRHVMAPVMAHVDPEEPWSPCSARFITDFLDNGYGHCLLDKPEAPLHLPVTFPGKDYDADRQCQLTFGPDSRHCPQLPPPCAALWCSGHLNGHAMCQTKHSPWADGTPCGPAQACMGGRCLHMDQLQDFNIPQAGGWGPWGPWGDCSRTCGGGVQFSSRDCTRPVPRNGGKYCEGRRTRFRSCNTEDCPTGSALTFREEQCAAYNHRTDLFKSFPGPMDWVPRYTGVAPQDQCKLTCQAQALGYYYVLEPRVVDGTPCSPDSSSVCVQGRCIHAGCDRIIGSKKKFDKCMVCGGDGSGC
In short: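 Enzyme in 50 mM Tris pH 7.5, 150 mM NaCl, 10 mM CaCl2, 0.05% Brij, preincubated with compound in DMSO; reaction started with FRET substrate. Fluorescence increase read after 120 min at 32° C; IC50 from percent inhibition versus compound concentration.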

| pIC50 [1] | pIC50 (ADAMTS4) | SMILES |
| --- | --- | --- |
| 7.42 | 5.70 | CC1(C)CC1C1(CNC(=O)c2cnn(-c3ccccc3)n2)NC(=O)NC1=O (racemic) [Example 150, ent-N-({4-[rac-2,2-dimethylcyclopropyl]-2,5-dioxoimidazolidin-4-yl}methyl)-2-phenyl-2H-1,2,3-triazole-4-carboxamide] |
| 6.25 | 5.30 | CC1(CNC(=O)c2cnn(-c3ccc(F)cc3)n2)NC(=O)NC1=O (racemic) [Example 152, rac-2-(4-fluorophenyl)-N-[(4-methyl-2,5-dioxoimidazolidin-4-yl)methyl]-2H-1,2,3-triazole-4-carboxamide] |
| 6.72 | 5.10 | O=C1NC(=O)C(CNC(=O)c2cnn(-c3ccc(F)cc3)n2)(C2(F)CC2)N1 (racemic) [Example 154, rac-N-{[4-(1-fluorocyclopropyl)-2,5-dioxoimidazolidin-4-yl]methyl}-2-(4-fluorophenyl)-2H-1,2,3-triazole-4-carboxamide] |
| 6.66 | < 4.30 | O=C1NC(=O)C(CNC(=O)c2cnn(-c3ccc(F)cc3)n2)(C2CC(F)(F)C2)N1 (racemic) [Example 155, rac-N-{[4-(3,3-difluorocyclobutyl)-2,5-dioxoimidazolidin-4-yl]methyl}-2-(4-fluorophenyl)-2H-1,2,3-triazole-4-carboxamide] |
| 7.23 | 4.82 | O=C1NC(=O)C(CNC(=O)c2cnn(-c3ccc(F)cc3)n2)(c2ncccc2C(F)(F)F)N1 (racemic) [Example 156, rac-N-({2,5-dioxo-4-[3-(trifluoromethyl)pyridin-2-yl]imidazolidin-4-yl}methyl)-2-(4-fluorophenyl)-2H-1,2,3-triazole-4-carboxamide] |
| 7.00 | 5.55 | Cc1nc(C2(CNC(=O)c3cnn(-c4ccc(F)cc4)n3)NC(=O)NC2=O)c(C)s1 (racemic) [Example 158, rac-N-{[4-(2,5-dimethyl-1,3-thiazol-4-yl)-2,5-dioxoimidazolidin-4-yl]methyl}-2-(4-fluorophenyl)-2H-1,2,3-triazole-4-carboxamide] |
| 7.13 | 5.43 | O=C1NC(=O)C(CNC(=O)c2cnn(-c3ccc(F)cc3)n2)(C2(Cl)CC2)N1 (racemic) [Example 159, rac-N-{[4-(1-chlorocyclopropyl)-2,5-dioxoimidazolidin-4-yl]methyl}-2-(4-fluorophenyl)-2H-1,2,3-triazole-4-carboxamide] |
| 6.70 | 4.89 | CCC1(CNC(=O)c2cnn(-c3ccc(F)cc3)n2)NC(=O)NC1=O (racemic) [Example 162, rac-N-[(4-ethyl-2,5-dioxoimidazolidin-4-yl)methyl]-2-(4-fluorophenyl)-2H-1,2,3-triazole-4-carboxamide] |
| 8.00 | 5.72 | O=C1NC(=O)C(CNC(=O)c2cnn(-c3ccc(F)cc3)n2)(c2ccccn2)N1 (single isomer, unassigned) [Example 97, ent-N-{[2,5-dioxo-4-(pyridin-2-yl)imidazolidin-4-yl]methyl}-2-(4-fluorophenyl)-2H-1,2,3-triazole-4-carboxamide] |
| 8.00 | 5.66 | CCC(C)C1(CNC(=O)c2cnn(-c3ccc(F)cc3)n2)NC(=O)NC1=O (single isomer, unassigned) [Example 104, ent-N-[(4-sec-butyl-2,5-dioxoimidazolidin-4-yl)methyl]-2-(4-fluorophenyl)-2H-1,2,3-triazole-4-carboxamide] |
| 7.43 | 6.00 | CCC(C)C1(CNC(=O)c2cnn(-c3ccc(F)cc3)n2)NC(=O)NC1=O (single isomer, unassigned) [Example 137, ent-N-[(4-sec-butyl-2,5-dioxoimidazolidin-4-yl)methyl]-2-(4-fluorophenyl)-2H-1,2,3-triazole-4-carboxamide] |
| 6.82 | 5.40 | O=C1NC(=O)C(CNC(=O)c2cnn(-c3ccccc3)n2)(C2CCCOC2)N1 (single isomer, unassigned; dia1) [Example 84, dia1-N-{[4-(-oxan-3-yl)-2,5-dioxoimidazolidin-4-yl]methyl}-2-phenyl-2H-1,2,3-triazole-4-carboxamide] |
| 6.60 | 5.19 | O=C1NC(=O)C(CNC(=O)c2cnn(-c3ccccc3)n2)(C2CCCOC2)N1 (single isomer, unassigned; dia2) [Example 85, dia2-N-{[4-(-oxan-3-yl)-2,5-dioxoimidazolidin-4-yl]methyl}-2-phenyl-2H-1,2,3-triazole-4-carboxamide] |
| 7.43 | 5.82 | O=C1NC(=O)C(CNC(=O)c2cnn(-c3ccc(F)cc3)n2)(C2CCOCC2)N1 (single isomer, unassigned; ent-2) [Example 81] |
| 7.01 | 4.89 | CC(C)C1(CNC(=O)c2cnn(-c3ccc(F)cc3F)n2)NC(=O)NC1=O (single isomer, unassigned; ent-2) [Example 88, ent-2-(2,4-difluorophenyl)-N-[(4-isopropyl-2,5-dioxoimidazolidin-4-yl)methyl]-2H-1,2,3-triazole-4-carboxamide] |
| 7.74 | 5.74 | O=C1NC(=O)C(CNC(=O)c2cnn(-c3ccc(F)c(Cl)c3)n2)(C2CCC2)N1 (single isomer, unassigned; ent-2) [Example 91, ent-2-(3-chloro-4-fluorophenyl)-N-[(4-cyclobutyl-2,5-dioxoimidazolidin-4-yl)methyl]-2H-1,2,3-triazole-4-carboxamide] |
| 7.11 | 5.40 | N#Cc1cccc(-n2ncc(C(=O)NCC3(C4CCC4)NC(=O)NC3=O)n2)c1 (single isomer, unassigned; ent-2) [Example 92, ent-2-(3-cyanophenyl)-N-[(4-cyclobutyl-2,5-dioxoimidazolidin-4-yl)methyl]-2H-1,2,3-triazole-4-carboxamide] |
| 8.00 | 6.01 | O=C1NC(=O)C(CNC(=O)c2cnn(-c3ccc(Cl)cc3)n2)(C2CCC2)N1 (single isomer, unassigned; ent-2) [Example 95, ent-2-(4-chlorophenyl)-N-[(4-cyclobutyl-2,5-dioxoimidazolidin-4-yl)methyl]-2H-1,2,3-triazole-4-carboxamide] |
| 7.32 | 5.66 | O=C1NC(=O)C(CNC(=O)c2cnn(-c3cccc(Cl)c3)n2)(C2CCC2)N1 (single isomer, unassigned; ent-2) [Example 96, ent-2-(3-chlorophenyl)-N-[(4-cyclobutyl-2,5-dioxoimidazolidin-4-yl)methyl]-2H-1,2,3-triazole-4-carboxamide] |
| 8.70 | 6.70 | Cc1scnc1C1(CNC(=O)c2cnn(-c3ccc(F)cc3)n2)NC(=O)NC1=O (single isomer, unassigned; ent-2) [Example 103] |
| 8.15 | 6.51 | O=C1NC(=O)C(CNC(=O)c2cnn(-c3ccc(F)c(F)c3)n2)(c2nccs2)N1 (single isomer, unassigned; ent-2) [Example 107, ent-2-(3,4-difluorophenyl)-N-{[2,5-dioxo-4-(1,3-thiazol-2-yl)imidazolidin-4-yl]methyl}-2H-1,2,3-triazole-4-carboxamide] |
| 8.30 | 6.40 | O=C1NC(=O)C(CNC(=O)c2cnn(-c3ccc(Cl)c(F)c3)n2)(c2nccs2)N1 (single isomer, unassigned; ent-2) [Example 110, ent-2-(4-chloro-3-fluorophenyl)-N-{[2,5-dioxo-4-(1,3-thiazol-2-yl)imidazolidin-4-yl]methyl}-2H-1,2,3-triazole-4-carboxamide] |
| 7.85 | 6.11 | O=C1NC(=O)C(CNC(=O)c2cnn(-c3ccc(F)c(Cl)c3)n2)(c2nccs2)N1 (single isomer, unassigned; ent-2) [Example 112, ent-2-(3-chloro-4-fluorophenyl)-N-{[2,5-dioxo-4-(1,3-thiazol-2-yl)imidazolidin-4-yl]methyl}-2H-1,2,3-triazole-4-carboxamide] |

From US20230027985A1, “SUBSTITUTED HYDANTOINAMIDES AS ADAMTS7 ANTAGONISTS” (Bayer Aktiengesellschaft, priority 2019, published 2023)
